Entries after “also recorded” stand apart in the source; their conditions may differ. Structures can show the parent of a compound that is named as a salt. Where two headings read alike, the source gives them in different places.
Tests used:
[1] = Fluorescence counterassay (AMC quenching); conditions: 1 μM AMC; 0% = 1 μM AMC, −100% = 0.1 μM AMC; <0% = quenching
Protocol: Assay buffer (50 mM Tris pH 8, 150 mM NaCl, 0.01% Tween20) was added to the full plate to give a total reaction volume of 5 μL. Detection was done using the PHERAstar with 340 nm excitation and 440 nm emission. Fluorescence was normalized relative to a negative control containing 7-amino-4-methylcoumarin at 0.1 μM (−100% activity, low fluorescence) and a positive control containing 7-amino-4-methylcoumarin at 1 μM (0% activity, high fluorescence).

[2] = tested on: Calu-3 cells; conditions: ATP content, no PP; for AC50: read-out: Calu-3 (cytotoxicity) AC50, N/D = Not Detected
[3] = target: T1, Recombinant Human TMPRSS2 (Homo sapiens, UniProt O15393); experiment: biochemical; type: biochemical; conditions: for AC50: 10 μM Boc-QAR-AMC, 0.175 μM TMPRSS2, 1 h RT, 11-point dose-response in triplicate, read-out: Biochemical (fluorogenic) AC50
Protocol: Buffer conditions were tested and optimized to include: 50 mM Tris pH 8, 150 mM NaCl and 0.01% Tween20.
Following 1 h of incubation at RT, detection was done using the PHERAstar with 340 nm excitation and 440 nm emission (Table 1).
To determine compound activity in the assay, the concentration–response data for each sample was plotted and modeled by a four-parameter logistic fit yielding IC50 and maximal response values. […] Data normalization, visualization, and curve fitting were performed using Prism (GraphPad, San Diego, CA).

[4] = target: T1, Recombinant Human TMPRSS2; experiment: biochemical; type: biochemical; conditions: for AC50: 10 μM peptide, 0.4 μM TMPRSS2, 1 h RT, N/D = Not Detected, read-out: Biochemical (mass spectrometry) AC50
[5] = in vitro; conditions: human

T1 sequence (O15393 106-492): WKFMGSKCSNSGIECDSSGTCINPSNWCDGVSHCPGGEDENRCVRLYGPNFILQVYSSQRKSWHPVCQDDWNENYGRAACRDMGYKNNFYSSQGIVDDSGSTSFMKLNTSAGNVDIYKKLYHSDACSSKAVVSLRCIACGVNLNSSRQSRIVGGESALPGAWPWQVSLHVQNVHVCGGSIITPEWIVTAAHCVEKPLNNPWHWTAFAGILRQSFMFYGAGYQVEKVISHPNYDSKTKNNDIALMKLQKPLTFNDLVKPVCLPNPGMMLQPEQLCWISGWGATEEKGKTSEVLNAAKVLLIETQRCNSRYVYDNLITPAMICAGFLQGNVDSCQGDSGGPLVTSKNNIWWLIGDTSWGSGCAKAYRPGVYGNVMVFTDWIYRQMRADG

Molecule: NCCc1ccc(S(=O)(=O)F)cc1 [4-(2-aminoethyl)benzenesulfonyl fluoride]
- Biochemical (fluorogenic counterassay) Max Response [1]: 23%
- Calu-3 (cytotoxicity) Max Response [2]: 0%

Molecule: CN(C)C(=O)COC(=O)Cc1ccc(OC(=O)c2ccc(NC(=N)N)cc2)cc1 [Camostat]
- Biochemical (fluorogenic counterassay) Max Response [1]: -5%
- Calu-3 (cytotoxicity) Max Response [2]: 0%

Molecule: G-007-LK
- Biochemical (fluorogenic counterassay) Max Response [1]: 424%
- Calu-3 (cytotoxicity) Max Response [2]: 0%
- AC50 [3]: 14.7 µM

Molecule: CN(C(=O)C(Cl)Cl)c1ccc(OC(=O)c2ccco2)cc1 [Diloxanide furoate]
- Biochemical (fluorogenic counterassay) Max Response [1]: -3.2%
- Calu-3 (cytotoxicity) Max Response [2]: 0%
- AC50 [4]: 21.7 µM
- AC50 [3]: 11.1 µM

Molecule: O=c1ccn([C@H]2C[C@H](O)[C@@H](CO)O2)c(=O)[nH]1 [Deoxyuridine]
- Biochemical (fluorogenic counterassay) Max Response [1]: 19.3%
- Calu-3 (cytotoxicity) Max Response [2]: 0%
- AC50 [3]: 16 µM

Molecule: Dibromopropamidine Dihydrochloride
- Biochemical (fluorogenic counterassay) Max Response [1]: 87%
- Calu-3 (cytotoxicity) Max Response [2]: -85%
- AC50 [2]: 25.1 µM
- AC50 [4]: 4.34 µM
- AC50 [3]: 4.4 µM

Molecule: COC[C@H]1C[C@@H](c2ncc(-c3ccc4c(c3)COc3cc5c(ccc6nc([C@@H]7CC[C@H](C)N7C(=O)[C@@H](NC(=O)OC)C(C)C)[nH]c65)cc3-4)[nH]2)N(C(=O)[C@H](NC(=O)OC)c2ccccc2)C1 [Velpatasvir]
- Biochemical (fluorogenic counterassay) Max Response [1]: 442%
- Calu-3 (cytotoxicity) Max Response [2]: 0%
- AC50 [4]: 13.2 µM
- AC50 [3]: 14.7 µM

Molecule: O=c1ccc2ccc(O)cc2o1 [7-Hydroxycoumarin]
- Biochemical (fluorogenic counterassay) Max Response [1]: 1373%
- Calu-3 (cytotoxicity) Max Response [2]: 0%
- inhibition of TMPRSS2 in the mass spectrometry detection assay ([4]; dose-response): no inhibition detected; also recorded: did not show inhibition
- AC50 [3]: 8.62 µM
- inhibition of TMPRSS2 in the fluorogenic assay ([3]; at 40 μM): nearly full inhibition

Molecule: O=S(=O)(F)Cc1ccccc1 [Phenylmethanesulfonyl fluoride (PMSF), Phenylmethanesulfonyl fluoride]
- Biochemical (fluorogenic counterassay) Max Response [1]: -2.8%
- Calu-3 (cytotoxicity) Max Response [2]: 0%

Molecule: Marizomib / Salinosporamide A
- Biochemical (fluorogenic counterassay) Max Response [1]: 2.2%
- Calu-3 (cytotoxicity) Max Response [2]: -98%
- AC50 [2]: 0.1 µM
- AC50 [4]: 22.9 µM
- AC50 [3]: 14.7 µM

Molecule: NC[C@H]1CC[C@H](C(=O)Oc2ccc(CCC(=O)O)cc2)CC1 [Cetraxate HCl]
- Biochemical (fluorogenic counterassay) Max Response [1]: 2.7%
- Calu-3 (cytotoxicity) Max Response [2]: 0%
- AC50 [4]: 5.52 µM
- AC50 [3]: 2.34 µM

Molecule: AGN194310
- Biochemical (fluorogenic counterassay) Max Response [1]: -9.2%
- Calu-3 (cytotoxicity) Max Response [2]: 0%
- AC50 [3]: 7.9 µM

Molecule: N=C(N)c1ccc(OCCCCCOc2ccc(C(=N)N)cc2)cc1 [Pentamidine isethionate]
- Biochemical (fluorogenic counterassay) Max Response [1]: -0.05%
- AC50 [5]: 18.6 µM
- AC50 [4]: 7.6 µM
- AC50 [3]: 9.49 µM

— paper doi:10.1101/2022.02.04.479134, “A Suite of TMPRSS2 Assays for Screening Drug Repurposing Candidates as Potential Treatments of COVID-19” (bioRxiv, 2022)
